Data published in patent publication US11730712B2, “Functionalized long-chain hydrocarbon mono- and di-carboxylic acids and derivatives thereof, and their use for the prevention or treatment of disease” (ESPERVITA THERAPEUTICS, INC., priority 2021, dated 2023).

Test system: liver fibrosis gene panel (770 genes)
Experiment: Nanostring nCounter Fibrosis panel gene expression in liver of DEN-injected mice
Assay type: in vivo, mouse
Conditions: vs vehicle
Method: Nanostring Analysis. RNA was extracted from paired liver and tumor tissue from vehicle, Compound I-1 (100 mg/kg) and Compound I-32 (100 mg/kg) treated mice using an RNeasy kit (Qiagen, Calif., USA) as per manufacturer's protocol. All RNA samples passed the BioAnalyzer quality control test. The expression of target genes in liver and tumor were analyzed using the nCounter Fibrosis and Cancer Panel (NanoString Technologies, Inc., WA, USA), respectively according to manufacturer's protocol at the McMaster Genomics Facility. Technical and biological normalization against global geometric mean was performed in nSolver 4.0 software (NanoString Technologies). Technical normalization was performed in the nSolver software (version 4.0.70) by normalizing sample target raw counts to the geometric mean of positive control spike-ins. Biological normalization was performed by normalizing sample target raw counts to the geometric mean of selected housekeeping genes (Ppia, Nubp1, Nol7, Armh3, Rplp0, Cnot10, Pgk1, and Acad9). Pathway scores were calculated as the first principal component of the normalized expression values for all genes in each pathway and samples were compiled according to experimental groups to determine average pathway scores. Statistical significance was calculated between experimental groups using multiple t-tests and p-values were corrected for multiple comparisons using Benjamin-Hochberg false discovery rate.
Molecular analysis. To identify the pathways modulated in the liver and tumor tissue, nanostring analysis of fibrosis and cancer, pathways, respectively were completed in an n=8 mice treated with vehicle or Compound I-32 or Compound I-1 at 100 mg/kg.

Question: `CC(C)(CCCCc1ccc(CCCCC(C)(C)C(=O)O)cc1)C(=O)O` [Compound I-1, 6-[4-(5-carboxy-5-methylhexyl)-phenyl]-2,2-dimethylhexanoic acid] was tested. Which “Axl Log2FC” value (NM_009465, 100 mg/kg) did it give?
Answer: −0.493

Question: What about the “Apoal Log2FC” value (NM_009692, 100 mg/kg) of the same compound?
Answer: −1.03

Question: And the “Apob Log2FC” value (NM_009693, 100 mg/kg)?
Answer: −0.289

Question: What about the “Atox1 Log2FC” value (NM_009720, 100 mg/kg) of the same compound?
Answer: 0.157

Question: And the “Bcl2l1 Log2FC” value (NM_009743, 100 mg/kg)?
Answer: −0.344

Question: And the “Serping1 Log2FC” value (NM_009776, 100 mg/kg)?
Answer: −0.631

Question: And the “C3ar1 Log2FC” value (NM_009779, 100 mg/kg)?
Answer: −0.618

Question: What about the “Calm1 Log2FC” value (NM_009790, 100 mg/kg) of the same compound?
Answer: −0.334

Question: What about the “Casp12 Log2FC” value (NM_009808, 100 mg/kg) of the same compound?
Answer: −0.633

Question: And the “Casp3 Log2FC” value (NM_009810, 100 mg/kg)?
Answer: −0.346

Question: What about the “Casp6 Log2FC” value (NM_009811, 100 mg/kg) of the same compound?
Answer: 0.266

Question: And the “Casp8 Log2FC” value (NM_009812, 100 mg/kg)?
Answer: 0.195

Question: What about the “Serpinh1 Log2FC” value (NM_009825, 100 mg/kg) of the same compound?
Answer: −0.486

Question: And the “Cdk4 Log2FC” value (NM_009870, 100 mg/kg)?
Answer: 0.26

Question: And the “Cfh Log2FC” value (NM_009888, 100 mg/kg)?
Answer: −1.41

Question: And the “Cxcr4 Log2FC” value (NM_009911, 100 mg/kg)?
Answer: −0.931

Question: What about the “Ccr2 Log2FC” value (NM_009915, 100 mg/kg) of the same compound?
Answer: −1.18

Question: What about the “Col3a1 Log2FC” value (NM_009930, 100 mg/kg) of the same compound?
Answer: −0.764

Question: And the “Csnk2b Log2FC” value (NM_009975, 100 mg/kg)?
Answer: 0.114

Question: What about the “Ctsd Log2FC” value (NM_009983, 100 mg/kg) of the same compound?
Answer: 0.297

Question: What about the “Cyp4a10/31/32 Log2FC” value (NM_010011, 100 mg/kg) of the same compound?
Answer: 3.15

Question: And the “Fcer1g Log2FC” value (NM_010185, 100 mg/kg)?
Answer: −0.406

Question: What about the “Fga Log2FC” value (NM_010196, 100 mg/kg) of the same compound?
Answer: −0.563

Question: And the “Fn1 Log2FC” value (NM_010233, 100 mg/kg)?
Answer: −0.666

Question: And the “Got2 Log2FC” value (NM_010325, 100 mg/kg)?
Answer: 0.224

Question: And the “H2-Aa Log2FC” value (NM_010378, 100 mg/kg)?
Answer: −0.78

Question: And the “H2-D1 Log2FC” value (NM_010380, 100 mg/kg)?
Answer: −0.266

Question: And the “H2-Eb1 Log2FC” value (NM_010382, 100 mg/kg)?
Answer: −0.772

Question: What about the “H2-Dma Log2FC” value (NM_010386, 100 mg/kg) of the same compound?
Answer: −0.391

Question: What about the “H2-DMB1 Log2FC” value (NM_010387, 100 mg/kg) of the same compound?
Answer: −0.938

Question: What about the “H2-T23 Log2FC” value (NM_010398, 100 mg/kg) of the same compound?
Answer: −0.403

Question: What about the “Hc Log2FC” value (NM_010406, 100 mg/kg) of the same compound?
Answer: −0.325

Question: And the “Hif1a Log2FC” value (NM_010431, 100 mg/kg)?
Answer: 0.358

Question: And the “Hsp90aa1 Log2FC” value (NM_010480, 100 mg/kg)?
Answer: 0.693

Question: What about the “Icam1 Log2FC” value (NM_010493, 100 mg/kg) of the same compound?
Answer: −0.371

Question: And the “Ikbkb Log2FC” value (NM_010546, 100 mg/kg)?
Answer: −0.395

Question: And the “Ilk Log2FC” value (NM_010562, 100 mg/kg)?
Answer: −0.143

Question: What about the “Itgb1 Log2FC” value (NM_010578, 100 mg/kg) of the same compound?
Answer: 0.106

Question: What about the “Fabp5 Log2FC” value (NM_010634, 100 mg/kg) of the same compound?
Answer: 1.1

Question: What about the “Psmb8 Log2FC” value (NM_010724, 100 mg/kg) of the same compound?
Answer: −1.07

Question: And the “Loxl1 Log2FC” value (NM_010729, 100 mg/kg)?
Answer: −1.1

Question: And the “Lyn Log2FC” value (NM_010747, 100 mg/kg)?
Answer: −0.32

Question: What about the “Smad2 Log2FC” value (NM_010754, 100 mg/kg) of the same compound?
Answer: 0.246

Question: And the “Myd88 Log2FC” value (NM_010851, 100 mg/kg)?
Answer: 0.261

Question: What about the “Nid1 Log2FC” value (NM_010917, 100 mg/kg) of the same compound?
Answer: −0.733

Question: What about the “P4hb Log2FC” value (NM_011032, 100 mg/kg) of the same compound?
Answer: −0.842

Question: And the “Pek1 Log2FC” value (NM_011044, 100 mg/kg)?
Answer: −1.88

Question: What about the “Prkacb Log2FC” value (NM_011100, 100 mg/kg) of the same compound?
Answer: −0.158

Question: And the “Pltp Log2FC” value (NM_011125, 100 mg/kg)?
Answer: 1.39

Question: And the “Ppard Log2FC” value (NM_011145, 100 mg/kg)?
Answer: −0.466

Question: And the “Pparg Log2FC” value (NM_011146, 100 mg/kg)?
Answer: −0.615

Question: And the “Prkdc Log2FC” value (NM_011159, 100 mg/kg)?
Answer: −0.568

Question: And the “Pros1 Log2FC” value (NM_011173, 100 mg/kg)?
Answer: −0.22

Question: And the “Lgmn Log2FC” value (NM_011175, 100 mg/kg)?
Answer: −0.499

Question: What about the “Psmb7 Log2FC” value (NM_011187, 100 mg/kg) of the same compound?
Answer: 0.204

Question: And the “Ptprc Log2FC” value (NM_011210, 100 mg/kg)?
Answer: −0.49

Question: And the “Rein Log2FC” value (NM_011261, 100 mg/kg)?
Answer: −0.45

Question: And the “S100a4 Log2FC” value (NM_011311, 100 mg/kg)?
Answer: −1.28

Question: And the “Serpinf1 Log2FC” value (NM_011340, 100 mg/kg)?
Answer: −0.18

Question: And the “Sod1 Log2FC” value (NM_011434, 100 mg/kg)?
Answer: 0.352

Question: What about the “Srebf1 Log2FC” value (NM_011480, 100 mg/kg) of the same compound?
Answer: −0.608

Question: What about the “Skp1a Log2FC” value (NM_011543, 100 mg/kg) of the same compound?
Answer: 0.227

Question: What about the “Thbs2 Log2FC” value (NM_011581, 100 mg/kg) of the same compound?
Answer: −0.831

Question: And the “Timp2 Log2FC” value (NM_011594, 100 mg/kg)?
Answer: −0.609

Question: And the “Tjp2 Log2FC” value (NM_011597, 100 mg/kg)?
Answer: 0.204
